Experimental data from PubChem BioAssay (NCI).
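Results reflect a 48-hour exposure of cells in 96-well plates to compound at five concentrations. Here, GI50 denotes the concentration required for 50% inhibition of growth. Definition used: TGI = concentration required for complete inhibition of growth.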

How the values were obtained:
Assay in all cases: NCI anticancer screen, dose series, 48 h
[1] = tested on: 786-0 renal
[2] = tested on: BT-549 breast
[3] = tested on: HOP-62 NSCLC
[4] = tested on: HOP-92 NSCLC
[5] = tested on: OVCAR-3 ovarian
[6] = tested on: SF-539 CNS
[7] = tested on: SK-MEL-28 melanoma
[8] = tested on: TK-10 renal
[9] = tested on: UACC-257 melanoma
[10] = tested on: UACC-62 melanoma

| Compound | GI50 [1] [µM] | TGI [1] [µM] | GI50 [2] [µM] | TGI [2] [µM] | GI50 [3] [µM] | TGI [3] [µM] | GI50 [4] [µM] | TGI [4] [µM] | GI50 [5] [µM] | TGI [5] [µM] | GI50 [6] [µM] | TGI [6] [µM] | GI50 [7] [µM] | TGI [7] [µM] | GI50 [8] [µM] | TGI [8] [µM] | GI50 [9] [µM] | TGI [9] [µM] | GI50 [10] [µM] | TGI [10] [µM] |
| --- | --- | --- | --- | --- | --- | --- | --- | --- | --- | --- | --- | --- | --- | --- | --- | --- | --- | --- | --- | --- |
| O=C1C=C(NCCO)c2nccc3c2c1nc1ccccc13 | 31.5 | > 100 | 36 | > 100 | 12.3 | 57.8 | > 100 | > 100 | 18.6 | 52.6 | 22.9 | 73.1 | 41.4 | > 100 | 18.7 | 60.8 | 32.2 | > 100 | 13.4 | 31 |
| C[C@]12CC[C@H](O[C@@H]3O[C@H](CO[C@@H]4O[C@H](CO)[C@@H](O)[C@H](O)[C@H]4O)[C@@H](O)[C@H](O)[C@H]3O)C[C@@H]1CC[C@@H]1[C@@H]2CC[C@]2(C)[C@@H](C3=CC(=O)OC3)CC[C@]12O |  | > 100 |  | 21.5 |  | 31.1 |  | > 89.1 |  | > 74.1 |  | 33.2 |  | > 100 |  | > 51.6 |  | > 73.3 |  | > 80.4 |
| Cc1ccc(N)cc1[As]=[As]c1cc(N)ccc1C (stereo not drawn) | 1.64 | 3.03 | 1.46 | 2.8 | 1.72 | 3.19 | 0.997 | 2.4 | 1.62 | 3.02 | 1.39 | 2.76 | 1.39 | 2.83 | 1.47 | 2.81 | 1.25 | 2.54 | 1.51 | 3 |
| O=C(Nc1ccncc1)C(=O)c1cn(S(=O)(=O)c2cccc(Cl)c2)c2ccccc12 | 7.94 | 43.6 | 5.85 | 38.3 | 7.26 | 48.1 | 3.31 | 23.1 | 4.12 | 23.4 | 4.61 | 43.9 | 10.2 | 60.1 | 23.5 | 75.9 | 24.7 | > 100 | 5.81 | > 100 |
| CC1=CC(=O)N(c2cccc3c(N4C(=O)C=C(C)C4=O)cccc23)C1=O | 7.5 | 23.5 | 6.44 | 19.5 | 28.3 | > 69.3 | 2.5 | 21 | 1.54 | 5.9 | 3.37 | 26.2 | 7.81 | 43.5 | 3.1 | 7.83 | 3.97 | 25 | 7.68 | 20.5 |
| Cc1sc(C(=O)c2cncnc2N[C@@H]2C[C@H](COS(N)(=O)=O)[C@@H](O)C2)cc1[C@@H]1NCCc2ccc(Cl)cc21 | 12.9 | 28.8 | 12.8 | 26.6 | 12.9 | 28.1 | 0.0783 | 12.9 | 4.98 | 21.7 | 1.48 | 20.3 | 9.88 | 22.1 | 12.9 | 26.8 | 0.0793 | 20.1 | 3.75 | 21.7 |
| Cn1ncc(C#N)c1-c1ccc2c(c1)CN([C@H](CN)Cc1cccc(F)c1)C2=O | 0.145 | 14.6 | 0.477 | 12.1 | 23.6 | > 100 | 0.134 | 1.67 | 10 | > 90.4 | 0.193 | 8.74 | 3.72 | > 83.2 | 0.787 | 24 | 5.99 | 66.6 | 3.17 | 22.6 |
| c1ccc(-c2[nH]ncc2-c2ccnc(-c3ccc(OCCN4CCOCC4)cc3)c2)nc1 | > 25 | > 25 | > 25 | > 25 | > 25 | > 25 | > 25 | > 25 | > 25 | > 25 | > 25 | > 25 | > 25 | > 25 | > 25 | > 25 | > 25 | > 25 | > 25 | > 25 |
| C=C1C(=O)O[C@H]2[C@H]1CC/C(COC(=O)c1cccnc1N)=C\CC[C@@]1(C)O[C@@H]21 | 1.7 | 4.24 | 2.17 | 5.6 | 4.89 | 18.6 | 0.282 | 2.63 | 1.04 | 2.88 | 2.56 | 8.74 | 2.01 | 8.85 | 2.59 | 10.4 | 2.32 | 12.6 | 3.02 | 13.3 |
| CNC(=O)ON(C(C)=O)C(=O)NC | > 93.8 | 34.4 | > 45.2 | 60.5 |  | 309 | > 56 | 64.4 | > 81.9 | 140 |  | 145 |  | 159 |  | 70.6 |  | 159 | > 88.2 | 149 |
| Cc1ccc(/C=N/NC(=O)c2ccccc2Oc2ccccc2)o1 | > 100 | > 100 | 28.4 | > 100 | 70.9 | > 100 | 12.5 | > 95.4 | 40.1 | > 100 | > 83.6 | > 100 | 36.6 | > 100 | 71.6 | > 100 | 36.5 | > 100 | 17.3 | > 81.2 |
| CN1CCN(CCCNC(=O)c2c3c(n4ccccc24)C(=O)c2ncccc2C3=O)CC1 | 1.63 | 22.3 | 7.24 | 20.6 | 0.966 | 13.5 | 3.03 | 13.4 | 0.4 | 3.53 | 1.99 | 6.56 | 4.57 | 19.1 | 5.13 | 40.9 | 0.971 | 2.3 | 0.764 | 3 |
| COC(=O)C1C(C(=O)O)C2(c3ccccc3)C(=O)C1(c1ccccc1)C(c1ccccc1)=C2c1ccccc1 (stereo not drawn) | 21.2 | 37.5 | 18 | 37.6 | 21.2 | 41.4 | 10.6 | 30.9 | 19.7 | 50.4 | 19.5 | 36.3 |  |  | 39.2 | 99 | 19.6 | 40.9 | 15.5 | 29.9 |
